# Data: publication PMC6727418, “Cyanidin-3-rutinoside acts as a natural inhibitor of intestinal lipid digestion and absorption” (BMC Complementary and Alternative Medicine, 2019)
# Columns and labels:
# [1] = molecular target: T1, Porcine pancreatic lipase (Sus scrofa, UniProt P00591); assay: fluorometric 4-MUO hydrolysis assay; Lineweaver-Burk kinetics (Ki […], Ki'[…]); format: biochemical
# T1 construct: gene PNLIP
# T1 sequence (P00591 1-450): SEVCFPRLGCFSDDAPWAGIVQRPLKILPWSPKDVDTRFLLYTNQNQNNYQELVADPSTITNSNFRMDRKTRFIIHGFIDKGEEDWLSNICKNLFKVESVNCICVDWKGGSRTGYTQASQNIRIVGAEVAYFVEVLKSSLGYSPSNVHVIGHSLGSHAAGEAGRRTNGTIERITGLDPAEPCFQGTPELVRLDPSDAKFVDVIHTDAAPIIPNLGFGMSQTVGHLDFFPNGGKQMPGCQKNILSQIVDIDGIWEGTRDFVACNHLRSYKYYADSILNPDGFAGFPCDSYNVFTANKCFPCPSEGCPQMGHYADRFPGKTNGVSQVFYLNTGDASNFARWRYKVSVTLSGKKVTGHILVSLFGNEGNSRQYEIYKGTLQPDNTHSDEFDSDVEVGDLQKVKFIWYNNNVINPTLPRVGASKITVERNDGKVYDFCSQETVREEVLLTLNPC
# [2] = molecular target: T2, porcine pancreatic cholesterol esterase (Sus scrofa, UniProt A0A286ZKB1); assay: colorimetric p-NPB hydrolysis assay, percent inhibition at […]; format: biochemical; settings: read-out: % inhibition at 1 mM
# T2 construct: gene CEL
# T2 sequence (A0A286ZKB1 96-682): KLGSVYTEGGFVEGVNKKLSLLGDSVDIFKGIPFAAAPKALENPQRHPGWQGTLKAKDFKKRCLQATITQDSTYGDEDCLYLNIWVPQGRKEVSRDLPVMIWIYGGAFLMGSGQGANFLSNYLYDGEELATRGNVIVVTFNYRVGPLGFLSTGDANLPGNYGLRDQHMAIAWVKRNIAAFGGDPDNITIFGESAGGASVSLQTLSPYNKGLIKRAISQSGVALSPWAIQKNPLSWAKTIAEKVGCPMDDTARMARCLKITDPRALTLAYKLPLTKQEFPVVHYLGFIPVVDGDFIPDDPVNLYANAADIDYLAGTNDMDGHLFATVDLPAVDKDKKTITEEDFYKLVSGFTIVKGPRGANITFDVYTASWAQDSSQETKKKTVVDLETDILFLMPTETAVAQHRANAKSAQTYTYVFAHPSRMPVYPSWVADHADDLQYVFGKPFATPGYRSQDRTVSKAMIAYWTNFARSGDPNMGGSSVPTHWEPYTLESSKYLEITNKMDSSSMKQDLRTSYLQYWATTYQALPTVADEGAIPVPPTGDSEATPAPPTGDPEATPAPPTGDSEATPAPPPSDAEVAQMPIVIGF
Structure (SMILES),IC50 [1],inhibition at 1000 µM [2]
"C[C@@H]1O[C@@H](OC[C@H]2O[C@@H](Oc3cc4c(O)cc(O)cc4[o+]c3-c3ccc(O)c(O)c3)[C@H](O)[C@@H](O)[C@@H]2O)[C@H](O)[C@H](O)[C@H]1O [C3R, Cyanidin-3-rutinoside]",59.4 ± 1.41 µM,
O=C(O)c1cc(O)c(O)c(O)c1 [gallic acid],,~39%
